In patent US10159249B2 (BAYER CROPSCIENCE AKTIENGESELLSCHAFT, priority 2013, dated 2018):

Assays:
[1] = system: maize transgenic T0 events expressing PfHPPDEvo41; assay: Greenhouse trial, maize T0 plants, leaf area damage; type: in vivo; settings: for number of events, herbicide tolerance class 0 (41%-100% damaged leaf area) / number of events, herbicide tolerance class 1 (16%-40% damaged leaf area) / number of events, herbicide tolerance class 2 (6%-15% damaged leaf area) / number of events, herbicide tolerance class 3 (0%-5% damaged leaf area): maize PfHPPDEvo41, six days after application
Description: (§1) Regenerated T0 events from tissue culture were transplanted into two inch square pots with synthetic soil (Fafard® Mix) and controlled-released fertilizer (Haifa Multicote™; polymer-coated controlled-release fertilizer, NPK Pro 18-6-12+Micronutrients) and cultivated in the greenhouse (GH) under supplementary high pressure sodium light for 12 days at a maximum of 30° C. during the day and a minimum of 22° C. at night. Fully recovered plants were transferred into five inch square pots filled with synthetic soil and control released fertilizer under the same environmental conditions. […] All herbicide treatments were conducted in a DeVries Tracker Sprayer system with standard application protocols, which are well known in the art. As a spray control T0 events have been sprayed with the adjunvant mixture lacking the herbicide.
(§2) Table 2 summarizes results of transgenic maize plants expressing mutants of the Pseudomonas fluorescens HPPD protein comprising an E (Glu)->P (Pro) replacement at position 335, a G (Gly)->W (Trp) replacement at position 336, a K (Lys)->A (Ala) replacement at position 339 and an A (Ala)->Q (Gln) replacement at position 340 (named PfHPPDEvo41 and being disclosed under SEQ ID No:16 in PCT/US2013/59598 (WO2014/043435) and being disclosed in present application under SEQ ID No. 29), or a mutated sequence of the Pseudomonas (=Comamonas) testosteroni HPPD protein comprising a E (Glu)->P (Pro) replacement at position 351, a G (Gly)->W (Trp) replacement at position 352, a K (Lys)->A (Ala) replacement at position 355 and an A (Ala)->Q (Gln) replacement at position 356 (named Axmi428H-Evo41 and being disclosed under SEQ ID No 56 in PCT/US2013/59598 (WO2014/043435) and being disclosed in present application as the HPPD protein sequence under SEQ ID No 33) or a mutated sequence of the Pseudomonas agarici HPPD protein comprising a E (Glu)->P (Pro) replacement at position 335, a G (Gly)->W (Trp) replacement at position 336, a K (Lys)->A (Ala) replacement at position 339 and an A (Ala)->Q (Gln) replacement at position 340 (named Axmi309H-EVO41 and being disclosed under SEQ ID No 54 in PCT/US2013/59598 (WO2014/043435) and being disclosed in present application as the HPPD protein sequence under SEQ ID No 37).
(§3) A rating of “1” was assigned to plants having a moderate tolerance with 16% to 40% damage of total leaf area. A rating of “2” was assigned to plants with good tolerance within the range of 6% to 15% damage of total leaf area.

[2] = system: maize transgenic T0 events expressing Axmi428H-Evo41; assay: as above; type: in vivo; settings: for number of events, herbicide tolerance class 0 (41%-100% damaged leaf area) / number of events, herbicide tolerance class 1 (16%-40% damaged leaf area) / number of events, herbicide tolerance class 2 (6%-15% damaged leaf area) / number of events, herbicide tolerance class 3 (0%-5% damaged leaf area): maize Axmi428H-Evo41, six days after application
Description: as §1, §2, §3

PfHPPD (SEQ ID No 46) = biological target: T1, PfHPPD (SEQ ID No 46) (Pseudomonas sp., UniProt P80064); assay: HPPD activity in presence of inhibitor, HGD assay; type: biochemical, Pseudomonas fluorescens
T1 construct: made in house; host or cells: E. coli K-12 BL21, vector pSE420(RI)NX-PfHPPD
T1 sequence (P80064 other isoform, or with tags, fused parts or gaps with the stated changes): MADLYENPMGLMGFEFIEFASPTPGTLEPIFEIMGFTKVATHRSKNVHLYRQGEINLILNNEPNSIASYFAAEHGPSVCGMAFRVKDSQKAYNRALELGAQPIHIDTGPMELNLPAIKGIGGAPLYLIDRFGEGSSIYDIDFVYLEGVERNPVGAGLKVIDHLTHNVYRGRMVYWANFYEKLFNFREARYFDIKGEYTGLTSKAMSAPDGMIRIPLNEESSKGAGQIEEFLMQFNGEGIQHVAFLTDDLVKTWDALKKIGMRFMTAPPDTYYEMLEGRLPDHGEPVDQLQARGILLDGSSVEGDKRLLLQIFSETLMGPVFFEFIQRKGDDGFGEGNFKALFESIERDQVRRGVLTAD
Description: With the HGD assay HPPD activity was measured at room temperature by adding appropriate amounts of HPPD to a solution of 200 mM Tris-HCl pH 7.6, 10 mM ascorbate, 20 μM FeSO4, 650 units of catalase, 8 μg HGA dioxygenase (HGA: homogentisate) and 600 μM HPP in a total volume of 1 ml. Initial reaction rates were determined from the increase in absorbance at 318 nm due to the formation of maleylacetoacetate (ε318=11,900 M-1 cm-1).
In cases, the symbol “>” is used this means that the value was far higher than the one indicated but could not be precisely calculated within in the range of concentration of inhibitor tested.
In the 1st column of Table 1, the HPPD employed in the assay is named and in the 2nd column of Table 1, the corresponding SEQ ID No of present invention is disclosed.

CSc1c(C(F)(F)F)ccc(C(=O)Nc2nnnn2C)c1Cl
share of tested events with high tolerance (5% or less bleached leaf area) ([1]; maize PfHPPDEvo41 (n=21), 100 g AI/ha): ~70%
number of events, herbicide tolerance class 0 (41%-100% damaged leaf area) ([1]; 25 g AI/ha): 6
number of events, herbicide tolerance class 1 (16%-40% damaged leaf area) ([1]; 25 g AI/ha): 0
number of events, herbicide tolerance class 2 (6%-15% damaged leaf area) ([1]; 25 g AI/ha): 1
number of events, herbicide tolerance class 3 (0%-5% damaged leaf area) ([1]; 25 g AI/ha): 28
number of events, herbicide tolerance class 0 (41%-100% damaged leaf area) ([1]; 50 g AI/ha): 1
number of events, herbicide tolerance class 1 (16%-40% damaged leaf area) ([1]; 50 g AI/ha): 0
number of events, herbicide tolerance class 2 (6%-15% damaged leaf area) ([1]; 50 g AI/ha): 2
number of events, herbicide tolerance class 3 (0%-5% damaged leaf area) ([1]; 50 g AI/ha): 28
number of events, herbicide tolerance class 0 (41%-100% damaged leaf area) ([1]; 100 g AI/ha): 4
number of events, herbicide tolerance class 1 (16%-40% damaged leaf area) ([1]; 100 g AI/ha): 0
number of events, herbicide tolerance class 2 (6%-15% damaged leaf area) ([1]; 100 g AI/ha): 2
number of events, herbicide tolerance class 3 (0%-5% damaged leaf area) ([1]; 100 g AI/ha): 15
share of tested events with high tolerance (5% or less bleached leaf area) ([2]; maize Axmi428H-Evo41 (n=29), 100 g AI/ha): ~70%
number of events, herbicide tolerance class 0 (41%-100% damaged leaf area) ([2]; 50 g AI/ha): 0
number of events, herbicide tolerance class 1 (16%-40% damaged leaf area) ([2]; 50 g AI/ha): 0
number of events, herbicide tolerance class 2 (6%-15% damaged leaf area) ([2]; 50 g AI/ha): 0
number of events, herbicide tolerance class 3 (0%-5% damaged leaf area) ([2]; 50 g AI/ha): 7
number of events, herbicide tolerance class 0 (41%-100% damaged leaf area) ([2]; 100 g AI/ha): 3
number of events, herbicide tolerance class 1 (16%-40% damaged leaf area) ([2]; 100 g AI/ha): 4
number of events, herbicide tolerance class 2 (6%-15% damaged leaf area) ([2]; 100 g AI/ha): 1
number of events, herbicide tolerance class 3 (0%-5% damaged leaf area) ([2]; 100 g AI/ha): 21
inhibition at 0.2 µM (PfHPPD (SEQ ID No 46); 0.2 μM inhibitor): 76%
IC50 (PfHPPD (SEQ ID No 46); room temperature, 600 μM HPP, molar concentration, read-out: pI50 (converted)): 100 nM
